From patent publication US8815774B2, “Herbicidal composition and method of use thereof” (Syngenta Crop Protection LLC, priority 2006, dated 2014) come the findings set out here.

What all share (assay type): in vivo
Experiment [1] relates to Trifolium repens (white clover). The experiment can be described thus: Glasshouse trial, control of white clover, post-emergence application. Here is the method:
(§1) A glasshouse trial was carried out. Large crabgrass seeds were sown into standard glasshouse potting mix (1:1 v/v Promix:Vero sand soil) contained in 10 cm square plastic pots. Treatments were replicated three times. Mesotrione (in the form Callisto® 480SE) was applied pre-emergence to large crabgrass (Digitaria sanguinalis) at either 12 g ai/ha or 24 g ai/ha with or without sulfentrazone (in the form Authority®). When used, sulfentrazone was applied at a rate of 140 g ai/ha or 280 g ai/ha. The adjuvant system was X-77 at 0.1% v/v in deionised water. 200 litres of herbicide/adjuvant system was used per hectare. General weed control was evaluated at 7 days after treatment (DAT). It is noted that all herbicides were applied at reduced field rates because herbicide effects are magnified in a glasshouse environment. Rates were chosen to give a 50 to 70% level of control with herbicides applied alone as this allows for detection of any synergistic effect when tank mixtures are used.
(§2) It is noted that control of large crabgrass with the higher rate of mesotrione alone was too high to allow for detection synergy when mesotrione was mixed with sulfentrazone. The lower rate of mesotrione was therefore used in this analysis. […] The results were evaluated using the Colby formula. The expected result for (A+B) is (A+B)−(A×B/100) where A and B are the ‘observed’ results for A and B on their own.
(§3) A glasshouse trial was set up as described in Example 1, except using carfentrazone instead of sulfentrazone, Trifolium repens (white clover) instead of large crabgrass, and different herbicide rates.
A glasshouse trial was set up as described in Example 2, except using applying the mixture post emergence rather than pre-emergence.

The test system is the same in experiment [2]. The experiment in a line: Glasshouse trial, control of white clover, pre-emergence application. Here is the method: as §1, §2, §3
In experiment [3] the test system is large crabgrass (Digitaria sanguinalis). The experiment can be described thus: Glasshouse trial, control of large crabgrass, pre-emergence application. The method, then: as §1, with “used. It is noted that control of large crabgrass with the higher rate of mesotrione alone was too high to allow for detection synergy when mesotrione was mixed with sulfentrazone. The lower rate of mesotrione was therefore used in this analysis. […] The results were evaluated using the Colby formula. The expected result for (A+B) is (A+B)−(A×B/100) where A and B are the ‘observed’ results for A and B on their own.” for “used.”

The mark [4] stands for this setting: carfentrazone 18 g ai/ha plus mesotrione 100 g ai/ha.
The mark [5] stands for this setting: carfentrazone 18 g ai/ha plus mesotrione 150 g ai/ha.
Where [6] appears, read: carfentrazone 36 g ai/ha plus mesotrione 100 g ai/ha.
Where [7] appears, read: carfentrazone 36 g ai/ha plus mesotrione 150 g ai/ha.
Where [8] appears, read: carfentrazone 18 g ai/ha plus mesotrione 25 g ai/ha.
[9] abbreviates: carfentrazone 18 g ai/ha plus mesotrione 50 g ai/ha.
The mark [10] stands for this setting: carfentrazone 36 g ai/ha plus mesotrione 25 g ai/ha.
The mark [11] stands for this setting: carfentrazone 36 g ai/ha plus mesotrione 50 g ai/ha.

As to `Cc1nn(-c2cc(CC(Cl)C(=O)O)c(Cl)cc2F)c(=O)n1C(F)F` (centres unmarked) [Carfentrazone], in experiment [1] (setting [4]), the “Actual control, Plus Mesotrione at 100 g ai/ha” value is reported as 70 and the “Expected control, Plus Mesotrione at 100 g ai/ha” value is listed as 43. In experiment [1] (setting [5]), the “Actual control, Plus Mesotrione at 150 g ai/ha” value is on record as 93 and the “Expected control, Plus Mesotrione at 150 g ai/ha” value came out at 65. Besides, in experiment [1] (setting [6]), the “Actual control, Plus Mesotrione at 100 g ai/ha” value was 72 and the “Expected control, Plus Mesotrione at 100 g ai/ha” value turned out to be 53. For the same molecule, in experiment [1] (setting [7]), the “Actual control, Plus Mesotrione at 150 g ai/ha” value was 93 and the “Expected control, Plus Mesotrione at 150 g ai/ha” value was 71. Further, in experiment [2] (setting [8]), the “Actual control, Plus Mesotrione at 25 g ai/ha” value amounted to 55 and the “Expected control, Plus Mesotrione at 25 g ai/ha” value is recorded as 50. In experiment [2] (setting [9]), the “Actual control, Plus Mesotrione at 50 g ai/ha” value is 75 and the “Expected control, Plus Mesotrione at 50 g ai/ha” value is reported as 62. For the same molecule, in experiment [2] (setting [10]), the “Actual control, Plus Mesotrione at 25 g ai/ha” value is reported as 73 and the “Expected control, Plus Mesotrione at 25 g ai/ha” value was 49. Besides, in experiment [2] (setting [11]), the “Actual control, Plus Mesotrione at 50 g ai/ha” value was determined as 85 and the “Expected control, Plus Mesotrione at 50 g ai/ha” value was 61.
Consider `Cc1nn(-c2cc(NS(C)(=O)=O)c(Cl)cc2Cl)c(=O)n1C(F)F` [Sulfentrazone, 2′,4′-dichloro-5′-(4-difluoromethyl-4,5-dihydro-3-methyl-5-oxo-1H-1,2,4-triazol-1-yl)methanesulfonanilide], for which the “synergy (Colby formula and Student-Newman-Keuls multiple range test)” value in experiment [3] (mesotrione 12 g ai/ha with sulfentrazone 140 g ai/ha) is reported as “synergy was seen”. Moreover, in experiment [3] (sulfentrazone 140 g ai/ha plus mesotrione 12 g ai/ha, 7 DAT), the “Expected control (Colby formula), Plus Mesotrione at 12 g ai/ha” value amounted to 87.0. Also, the “Actual control, Plus Mesotrione at 12 g ai/ha” value in experiment [3] (sulfentrazone 140 g ai/ha tank mixed with mesotrione 12 g ai/ha, 7 DAT) is reported as 100. The “control of large crabgrass, herbicide on its own” value in experiment [3] (sulfentrazone alone (lower rate, 140 g ai/ha), 7 DAT) came to 75%.
